{
  "source": "patent US20080181971A1",
  "about": "“Combination Cancer Treatments Comprising Elsamitrucin and Other Agents” (priority 2007, published 2008)",
  "key": {"[1]": {"tested_on": "SKMES human non-small cell lung carcinoma cell line", "test": "MTT growth inhibition assay, single agents and fixed-ratio combinations with elsamitrucin (Chou-Talalay, CalcuSyn), SKMES", "format": "cell-based", "protocol": "(§1) These individual agents and their combinations were evaluated for in vitro activity against the HT29 colon carcinoma, SKMES non-small cell lung carcinoma, and Daudi B-lymphoblastic cell lines. Cell growth in 96-well microculture plates was determined with a semi-automated MTT assay. Efficacies of drug combinations were analyzed according to the methods of Chou and Talalay, utilizing CalcuSyn software. Twenty-one in vitro experiments were conducted to determine the individual and combined growth inhibitory activities of elsamitrucin and the ten selected agents in the three cell lines.\n(§2) b. Cell Lines. The human HT29 colon carcinoma, SKMES non-small cell lung carcinoma, and Daudi B-lymphoblastic cell lines were originally obtained from ATCC (American Type Culture Collection). These cell lines have been maintained and stored as frozen stocks. […] The medium for Daudi cells was additionally supplemented with 1 mM sodium pyruvate.\n(§3) c. Growth Inhibition Assay. Anti-proliferative activities against the HT29, SKMES, and Daudi cell lines were evaluated in vitro by the MTT assay. Cells (1,500-2,000 cells/well) were seeded in a 96-well microculture plate in 180 pL of medium/well. […] DMSO was present in all wells at a final concentration of 0.1%. […] When the appropriate cell density was attained in the control wells, the plates were centrifuged briefly, and 100 pL of the growth medium was removed. The cell cultures were incubated with 50 μL of MTT reagent (1 mg/mL in Dulbecco's phosphate-buffered saline) for 4 hr at 37° C. The resultant purple formazan precipitate was solubilized with 200 μL of 0.04 N HCl in isopropanol.\n(§4) The results of each experiment were stored in Excel format.\n(§5) d. Preliminary Experiments: Design and Data Analysis. […] The initial experiments utilized serial three-fold dilutions of the drugs to produce ten test concentrations over a broad concentration range. Based on the initial results, a narrower concentration range was selected, and serial 1:1.5 dilutions were utilized to produce ten test concentrations. Experiments were repeated as needed.\n(§6) For assays that utilized lower dilution factors to produce narrower concentration ranges, the results were analyzed with both Prism and CalcuSyn (as described below) to allow comparison of the IC50 and Da, values. The results guided the selection of appropriate concentration ranges and concentration ratios for the combination experiments.\n(§7) e. Combination Experiments: Design and Data Analysis. The fixed-ratio design of Chou was used for the combination experiments. For each experiment, the drug solutions were mixed at a ratio that was expected to provide approximately equipotent concentrations, and the mixture was serially diluted with medium containing 1% DMSO to yield 10× stock solutions of the test concentrations. […] Each agent was tested individually and in combination at seven concentrations. The concentration range selected for each assay was designed to bracket the concentrations that produced half-maximal effects (ED50) with each single agent and their mixture. The concentrations used for the single-drug assays were twice as high as their concentrations in the mixture. Each assay was performed in quadruplicate. For each drug combination, the individual agents and their mixture were assayed on the same 96-well plate. The effects of the individual drugs and their combinations were analyzed by the method of Chou and Talalay. The results of each experiment were entered into CalcuSyn (BIOSOFT) for dose-effect analysis.\n(§8) where Acontrol and Adrug are the respective absorbances of vehicle control and drug-treated wells in the MIT assay.\n(§9) where the slope, m, is related to the sigmoidicity of the dose-effect curve, with m=1, >1, and <1 indicating hyperbolic, sigmoidal, and reverse sigmoidal shapes, respectively."}, "[2]": {"tested_on": "HT29 human colon carcinoma cell line", "test": "MTT growth inhibition assay, single agents and fixed-ratio combinations with elsamitrucin (Chou-Talalay, CalcuSyn), HT29", "format": "cell-based", "protocol": "as §1, §2, §3, §4, §5, §6, §7, §8, §9"}, "[3]": {"tested_on": "Daudi human lymphoma cell line", "test": "MTT growth inhibition assay, single agents and fixed-ratio combinations with elsamitrucin (Chou-Talalay, CalcuSyn), Daudi", "format": "cell-based", "protocol": "as §1, §2, §3, §4, §5, §6, §7, §8, §9"}, "[4]": {"conditions": "i.p., qd x5; cited from earlier work"}},
  "note": "Several values for one entry are separate records, joined by “and”; a condition that tells them apart may be missing. Identical values can stand only once. Like-named read-outs stand apart in the source and are kept apart here.",
  "data": [
    {"smiles": "N.N.[Cl][Pt][Cl]", "note": "[Cisplatin, cisplatin]", "values": [
      {"measurement": "IC50", "setting": "[1]; SKMES growth inhibition, second agent alone, one value per plate (Experiment ID), read-out: Dm Value (95% Confidence Interval), Individually, Second Agent", "result": 1.67, "unit": "µM"},
      {"measurement": "decrease of Dm in the combination", "setting": "[1]; SKMES, in combination with elsamitrucin versus single agent", "result": 47, "unit": "%"},
      {"measurement": "IC50", "setting": "[1]; SKMES, single agent on the same plate as the combination, read-out: Dm Value, Individually, Second Agent", "result": 1.67, "unit": "µM"},
      {"measurement": "IC50", "setting": "[1]; SPA-02 (SKMES-e22), single agent, dilution 1:3, read-out: Prism IC50", "result": 0.675, "unit": "µM"},
      {"measurement": "IC50", "setting": "[1]; SPA-03 (SKMES-e23), single agent, dilution 1:1.5, read-out: CalcuSyn Dm", "result": 1.19, "unit": "µM"},
      {"measurement": "IC50", "setting": "[1]; SPA-03 (SKMES-e23), single agent, dilution 1:1.5, read-out: Prism IC50", "result": 1.14, "unit": "µM"},
      {"measurement": "IC50", "setting": "[1]; average of preliminary single-agent experiments, SKMES, read-out: Average IC50, Dm value", "result": 1, "unit": "µM"},
      {"measurement": "decrease of Dm in the combination", "setting": "[2]; HT29, in combination with elsamitrucin versus single agent", "result": 38, "unit": "%"},
      {"measurement": "IC50", "setting": "[2]; HT29, single agent on the same plate as the combination, read-out: Dm Value, Individually, Second Agent", "result": "2.33 µM and 1.75 µM"},
      {"measurement": "IC50", "setting": "[2]; SPA-01 (HT29-e21), single agent, dilution 1:3, read-out: Prism IC50", "result": 1.85, "unit": "µM"},
      {"measurement": "IC50", "setting": "[2]; SPA-04 (HT29-e22), single agent, dilution 1:1.5, read-out: CalcuSyn Dm", "result": 1.93, "unit": "µM"},
      {"measurement": "IC50", "setting": "[2]; SPA-04 (HT29-e22), single agent, dilution 1:1.5, read-out: Prism IC50", "result": 1.86, "unit": "µM"},
      {"measurement": "IC50", "setting": "[2]; average of preliminary single-agent experiments, HT29, read-out: Average IC50, Dm value", "result": 1.88, "unit": "µM"},
      {"measurement": "IC50", "setting": "[3]; Daudi growth inhibition, second agent alone, one value per plate, Table 8 (Supplement), read-out: Dm Value (95% Confidence Interval), Individually, Second Agent", "result": 0.494, "unit": "µM"},
      {"measurement": "IC50", "setting": "[3]; Daudi growth inhibition, second agent alone, Table 8, read-out: Dm Value (95% Confidence Interval), Individually, Second Agent", "result": 0.494, "unit": "µM"},
      {"measurement": "decrease of Dm in the combination", "setting": "[3]; Daudi, in combination with elsamitrucin versus single agent", "result": 59, "unit": "%"},
      {"measurement": "IC50", "setting": "[3]; Daudi, read-out: approximate Dm values for the second drugs as single agents", "result": "~0.49", "unit": "µM"},
      {"measurement": "IC50", "setting": "[3]; SPA-05 (Daudi-e01), single agent, dilution 1:3, read-out: Prism IC50", "result": 0.367, "unit": "µM"},
      {"measurement": "IC50", "setting": "[3]; SPA-08 (Daudi-e02), single agent, dilution 1:1.5, read-out: CalcuSyn Dm", "result": 0.343, "unit": "µM"},
      {"measurement": "IC50", "setting": "[3]; SPA-08 (Daudi-e02), single agent, dilution 1:1.5, read-out: Prism IC50", "result": 0.344, "unit": "µM"},
      {"measurement": "IC50", "setting": "[3]; average of preliminary single-agent experiments, Daudi, read-out: Average IC50, Dm value", "result": 0.351, "unit": "µM"},
      {"measurement": "MTD revealed in previous studies", "setting": "[4]", "result": 2.7, "unit": "mg/kg"}
    ]}
  ]
}
